The source of these data is ChEMBL document CHEMBL1641570, “New hydroxystilbenoid derivatives endowed with neuroprotective activity and devoid of interference with estrogen and aryl hydrocarbon receptor-mediated transcription” (Bioorg Med Chem, 2011).

Series [1] concerns the target T1, Estrogen receptor (Homo sapiens, UniProt P03372).
T1 sequence (P03372 whole entry): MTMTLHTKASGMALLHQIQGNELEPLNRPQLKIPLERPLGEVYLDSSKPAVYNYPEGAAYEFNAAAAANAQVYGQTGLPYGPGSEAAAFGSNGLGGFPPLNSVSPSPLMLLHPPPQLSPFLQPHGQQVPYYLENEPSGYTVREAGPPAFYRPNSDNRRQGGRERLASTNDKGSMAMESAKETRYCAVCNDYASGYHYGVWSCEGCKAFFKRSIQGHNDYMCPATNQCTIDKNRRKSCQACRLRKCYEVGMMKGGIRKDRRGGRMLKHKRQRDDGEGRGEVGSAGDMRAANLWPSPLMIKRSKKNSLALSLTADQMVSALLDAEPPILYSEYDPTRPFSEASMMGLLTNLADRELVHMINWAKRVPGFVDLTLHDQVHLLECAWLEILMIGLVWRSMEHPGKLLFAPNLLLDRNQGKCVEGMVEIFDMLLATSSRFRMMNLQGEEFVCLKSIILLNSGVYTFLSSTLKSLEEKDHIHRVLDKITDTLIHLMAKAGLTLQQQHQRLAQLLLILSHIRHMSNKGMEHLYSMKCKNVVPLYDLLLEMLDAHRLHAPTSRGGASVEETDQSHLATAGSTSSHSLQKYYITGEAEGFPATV
The series can be described thus: Partial agonist activity at human ERalpha receptor expressed in human MCF7:D5L cells co-expressing ERE assessed as increase of estradiol-induced luciferase gene expression at 1 uM after 18 hrs relative to estradiol. Format: cell-based. The note with it: 18 h, 1 µM.

In series [2] the target is T1, Estrogen receptor. The series can be described thus: Antagonist activity at human ERalpha receptor expressed in human MCF7:D5L cells co-expressing ERE assessed as inhibition of estradiol-induced of luciferase gene expression at 1 uM after 18 hrs relative to ICI182780. Format: cell-based.
The test system of another series is Ishikawa. The series can be described thus: Cytotoxicity against human Ishikawa cells at 1 uM by LDH release assay. It counts as cell-based. A general note: Release of lactate dehydrogenase indicates damage to the cell membrane.
In series [3] the test system is HT-22. The series can be described thus: Neuroprotective activity in mouse HT22 cells assessed as protection against glutamate-induced oxytosis after 24 hrs by MTT assay. It counts as functional, cell-based. Particulars: HT-22, 24 h; call rule not given here. For orientation: Formazan colour is commonly taken as a measure of viable cells.
The target in series [4] is Aryl hydrocarbon receptor (Mus musculus) (UniProt P30561). The series can be described thus: Activity at AhR expressed in mouse H1L1.1c2 cells co-expressing XRE assessed as increase of benzo[b]fluoranthene-induced luciferase gene expression at 1 uM after 72 hrs.
Series [5] concerns HT-22. The series can be described thus: Neuroprotective activity in mouse HT22 cells assessed as protection against glutamate-induced oxytosis after 24 hrs by MTT assay relative to resveratrol. Format: functional.
Another series has as its target Estrogen receptor beta (Homo sapiens, UniProt Q92731). Nature of the series: Agonist activity at human ERbeta receptor expressed in human HEK293 cells co-expressing ERE assessed as increase of estradiol-induced luciferase gene expression at 1 uM after 18 hrs relative to estradiol. It counts as cell-based. Particulars: read-out: Activity.
Series [6] is described as follows: Cytotoxicity against mouse HT22 cells assessed as cell viability at 1 uM after 3 days by LDH release assay relative to control. Format: cell-based, HT-22. The note with it: read-out: Activity.

Aryl hydrocarbon receptor (Mus musculus), sequence (P30561 whole entry, looked up): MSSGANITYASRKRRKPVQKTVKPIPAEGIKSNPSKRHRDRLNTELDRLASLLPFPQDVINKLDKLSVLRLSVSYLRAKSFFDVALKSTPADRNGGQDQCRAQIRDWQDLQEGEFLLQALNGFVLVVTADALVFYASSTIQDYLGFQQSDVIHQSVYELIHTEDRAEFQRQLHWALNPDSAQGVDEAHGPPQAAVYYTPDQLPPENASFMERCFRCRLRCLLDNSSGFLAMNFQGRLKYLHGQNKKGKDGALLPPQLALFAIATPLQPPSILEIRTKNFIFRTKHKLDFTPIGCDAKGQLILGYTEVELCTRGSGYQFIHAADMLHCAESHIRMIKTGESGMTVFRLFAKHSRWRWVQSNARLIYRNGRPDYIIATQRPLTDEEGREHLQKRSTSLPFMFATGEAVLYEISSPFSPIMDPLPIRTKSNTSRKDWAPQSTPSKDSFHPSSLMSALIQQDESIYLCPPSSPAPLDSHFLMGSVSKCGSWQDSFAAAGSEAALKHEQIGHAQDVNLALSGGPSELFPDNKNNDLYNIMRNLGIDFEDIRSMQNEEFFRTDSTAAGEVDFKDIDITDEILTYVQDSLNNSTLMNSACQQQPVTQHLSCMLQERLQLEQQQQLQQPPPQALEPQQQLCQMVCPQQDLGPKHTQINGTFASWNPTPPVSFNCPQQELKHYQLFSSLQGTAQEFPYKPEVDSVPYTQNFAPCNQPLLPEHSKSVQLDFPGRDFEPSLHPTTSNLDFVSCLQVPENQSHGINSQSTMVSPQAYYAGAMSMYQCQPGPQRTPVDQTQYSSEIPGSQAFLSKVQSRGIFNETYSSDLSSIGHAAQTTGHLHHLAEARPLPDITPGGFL
Estrogen receptor beta, sequence (Q92731 whole entry): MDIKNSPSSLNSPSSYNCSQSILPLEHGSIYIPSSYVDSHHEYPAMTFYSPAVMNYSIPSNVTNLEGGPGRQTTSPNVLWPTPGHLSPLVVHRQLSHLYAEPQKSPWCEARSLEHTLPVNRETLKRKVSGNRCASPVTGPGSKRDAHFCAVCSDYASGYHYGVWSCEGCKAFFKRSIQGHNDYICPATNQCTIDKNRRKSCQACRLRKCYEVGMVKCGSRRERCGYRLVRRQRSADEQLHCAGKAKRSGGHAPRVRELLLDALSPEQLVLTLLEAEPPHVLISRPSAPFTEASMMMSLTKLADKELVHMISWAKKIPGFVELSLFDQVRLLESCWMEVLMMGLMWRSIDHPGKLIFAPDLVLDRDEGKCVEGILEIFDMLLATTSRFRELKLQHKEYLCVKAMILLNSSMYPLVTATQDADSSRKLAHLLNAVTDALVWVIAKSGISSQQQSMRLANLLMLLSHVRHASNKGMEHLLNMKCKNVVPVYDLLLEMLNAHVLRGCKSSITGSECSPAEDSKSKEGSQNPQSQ

`Oc1ccc(/C=C/C=C/c2cc(O)cc(O)c2)cc1`: the Activity result is “Not Active” on Estrogen receptor [1], “Not Active” at Estrogen receptor [2], “Toxic” in the series on Ishikawa and 1.7% in series [4]. The concentration for a half-maximal effect (EC50) – broadly, the concentration at which the effect is half-maximal – with HT-22 [3] was 3.31 µM. For the same compound, the “Ratio EC50” value in the series on HT-22 [5] is 1.4. The activity at 18 h, 1 µM on Estrogen receptor beta is 66%. Moreover, in series [6], the percent cytotoxicity (LDH release relative to control) at 72 h, 1 µM amounted to 8%.
